We go through 30 compounds from patent US11851440B2, “Modulators of eukaryotic initiation factor 2B, compositions and methods” (Denali Therapeutics Inc., priority 2017, dated 2023).

A value given as a limit tells only on which side of the number the result lay.

For orientation: IC50 means the concentration at which inhibition is half-maximal.

One assay relates to ISR pathway (ATF4 translation). The experiment in a line: ATF4 Nano Luciferase reporter integrated stress response (ISR) assay in H4 ATF4-NLuc cells. Conditions: Homo sapiens, H4 ATF4-NLuc (clone 17) cells; compound 30 minutes, then 50 um sodium arsenite for 6 hours; luminescence readout. Background: In a reporter assay the amount or activity of a reporter protein is the signal.
`O=C(COc1ccc(Cl)c(F)c1)NC12CC(c3nnc([C@H]4C[C@@H](OC(F)(F)F)C4)o3)(C1)C2` [Example 6, 2-(4-chloro-3-fluoro-phenoxy)-N-[1-[5-[cis-3-(trifluoromethoxy)cyclobutyl]-1,3,4-oxadiazol-2-yl]-3-bicyclo[1.1.1]pentanyl]acetamide] had an IC50 of 2.5 nM.
Same read-out and setting: for `O=C(CO[C@H]1C[C@@H](OC(F)(F)F)C1)NC12CC(n3cnc(-c4c(F)cc(Cl)cc4F)c3)(C1)C2` [Example 269] the value was 7.5 nM.

Still in this assay, the particulars now being: Homo sapiens, read-out: Activity (IC50), H4 ATF4-NLuc (clone 17) cells; compound 30 minutes, then 50 um sodium arsenite for 6 hours; luminescence readout.
On to `O=C(COc1ccc(Cl)c(F)c1)NC12CC(c3nnc([C@H]4C[C@@H](OC(F)(F)F)C4)o3)(C1)C2` [Example 6, 2-(4-chloro-3-fluoro-phenoxy)-N-[1-[5-[cis-3-(trifluoromethoxy)cyclobutyl]-1,3,4-oxadiazol-2-yl]-3-bicyclo[1.1.1]pentanyl]acetamide], for which the IC50 was less than 1000 nM.
The same measure, in the same setting: in the case of `O=C(CO[C@H]1C[C@@H](OC(F)(F)F)C1)NC12CC(c3nnc(COc4ccc(Cl)c(F)c4)o3)(C1)C2` [Example 41, N-[1-[5-[(4-chloro-3-fluoro-phenoxy)methyl]-1,3,4-oxadiazol-2-yl]-3-bicyclo[1.1.1]pentanyl]-2-cis-[3-(trifluoromethoxy)cyclobutoxy]acetamide] it was less than 1000 nM.
The same measure, in the same setting: in the case of `O=C(COc1ccc(Cl)cc1)NC12CC(c3nnc([C@H]4C[C@@H](O)C4)o3)(C1)C2` [Example 261] it was 1000 to 10000 nM.
On the same count and under the same terms, in the case of `O=C(COc1ccc(Cl)cc1)NC12CC(N3CC(CC(F)(F)F)CC3=O)(C1)C2` (centres unmarked) [Example 210] it was less than 1000 nM.
As for `O=C(COc1ccc(F)c(F)c1)NC12CC(n3cnc([C@H]4C[C@@H](OC(F)(F)F)C4)c3)(C1)C2` [Example 143], the half-inhibitory concentration (IC50) was less than 1000 nM.
Same read-out and setting: in the case of `O=C(COc1ccc(Cl)c(F)c1)NC12CC(n3cnnn3)(C1)C2` [Example 200] it was less than 1000 nM; in that of `O=C(COc1ccc(Cl)c(F)c1)NC12CC(C3CN(CC4CCC4)C(=O)O3)(C1)C2` (centres unmarked) [Example 220], less than 1000 nM; in that of `O=C(COc1ccc(Cl)c(F)c1)NC12CC(c3nnc(C4C[C@H]4COC(F)(F)F)o3)(C1)C2` (mixture of isomers) [Example 80, 2-(4-chloro-3-fluoro-phenoxy)-N-[3-[5-[2-trans-(trifluoromethoxymethyl)cyclopropyl]-1,3,4-oxadiazol-2-yl]-1-bicyclo[1.1.1]pentanyl]acetamide], less than 1000 nM.
Still for that read-out and setting: for `O=C(CO[C@H]1C[C@@H](OC(F)(F)F)C1)NC12CC(n3cnc(-c4c(F)cc(Cl)cc4F)c3)(C1)C2` [Example 269] the value was less than 1000 nM; for `N#Cc1cc(C(F)(F)F)ccc1-c1cn(C23CC(NC(=O)CO[C@H]4C[C@@H](OC(F)(F)F)C4)(C2)C3)cn1` [Example 255], less than 1000 nM; for `O=C(COc1ccc(Cl)cc1)NC12CC(n3cnc([C@H]4C[C@@H](OC(F)(F)F)C4)c3)(C1)C2` [Example 68, 2-(4-chlorophenoxy)-N-[3-[4-[3-cis-(trifluoromethoxy)cyclobutyl]imidazol-1-yl]-1-bicyclo[1.1.1]pentanyl]acetamide], less than 1000 nM.
For `O=C(COc1ccc(Cl)c(F)c1)NC12CC(c3cc(C4CCC4)on3)(C1)C2` [Example 24, 2-(4-chloro-3-fluorophenoxy)-N-(3-(5-cyclobutylisoxazol-3-yl)bicyclo[1.1.1]pentan-1-yl)acetamide], the IC50 was less than 1000 nM.
The same measure, in the same setting: for `O=C(COc1ccc(Cl)c(F)c1)NC12CC(c3nnc(COC(F)(F)F)o3)(C1)C2` [Example 45, 2-(4-chloro-3-fluoro-phenoxy)-N-[1-[5-(trifluoromethoxymethyl)-1,3,4-oxadiazol-2-yl]-3-bicyclo[1.1.1]pentanyl]acetamide] the value was less than 1000 nM.
Take `O=C(NC12CC(c3nnc([C@H]4C[C@@H](OC(F)(F)F)C4)o3)(C1)C2)c1cn2ccc(Cl)cc2n1` [Example 104, 7-chloro-N-[3-[5-[3-cis-(trifluoromethoxy)cyclobutyl]-1,3,4-oxadiazol-2-yl]-1-bicyclo[1.1.1]pentanyl]imidazo[1,2-a]pyridine-2-carboxamide]: the half-inhibitory concentration (IC50) is less than 1000 nM.
Consider `O=C(CO[C@H]1C[C@@H](OC(F)(F)F)C1)NC12CC(c3cc(-c4ccc5c(c4)OC(F)(F)O5)no3)(C1)C2` [Example 258], for which the 50% inhibitory concentration (IC50) was less than 1000 nM.
Same read-out and setting: in the case of `O=C(COC1CCC1)NC12CC(c3nnc(-c4ccc(Cl)c(F)c4)o3)(C1)C2` [Example 42, N-[1-[5-(4-chloro-3-fluoro-phenyl)-1,3,4-oxadiazol-2-yl]-3-bicyclo[1.1.1]pentanyl]-2-(cyclobutoxy)acetamide] it was 1000 to 10000 nM; in that of `O=C(NC12CC(c3nnc([C@H]4C[C@@H](OC(F)(F)F)C4)o3)(C1)C2)c1cn2cc(F)ccc2n1` [Example 180], 1000 to 10000 nM; in that of `O=C(CO[C@H]1C[C@@H](OC(F)(F)F)C1)NC12CC(n3cnc(-c4cc(F)c(Cl)cc4F)c3)(C1)C2` [Example 271], less than 1000 nM.
The same measure, in the same setting: for `CC(COC(F)(F)F)OCC(=O)NC12CC(n3cnc(-c4ccc(Cl)c(F)c4)c3)(C1)C2` (centres unmarked) [Example 262] the value was less than 1000 nM; for `CN1C(=O)N(C23CC(NC(=O)COc4ccc(Cl)cc4)(C2)C3)CC1c1ccc(Cl)cc1` (centres unmarked) [Example 212], less than 1000 nM.
The same measure, in the same setting: in the case of `C#CCN(C(=O)COc1ccc(Cl)cc1)C12CC(c3nnc([C@H]4C[C@@H](OC(F)(F)F)C4)o3)(C1)C2` [Example 74, 2-(4-chlorophenoxy)-N-prop-2-ynyl-N-[1-[5-[3-cis-(trifluoromethoxy)cyclobutyl]-1,3,4-oxadiazol-2-yl]-3-bicyclo[1.1.1]pentanyl]acetamide] it was less than 1000 nM; in that of `CC(C)(C)OC(=O)N1CC(c2nnc(C34CC(NC(=O)COc5ccc(Cl)c(F)c5)(C3)C4)o2)C1` [Example 13, tert-Butyl 3-[5-[3-[[2-(4-chloro-3-fluoro-phenoxy)acetyl]amino]-1-bicyclo[1.1.1]pentanyl]-1,3,4-oxadiazol-2-yl]azetidine-1-carboxylate], less than 1000 nM.
With `O=C(COc1ccc(Cl)cc1)NC12CC(N3C[C@H](C4CC(OC(F)(F)F)C4)OS3(=O)=O)(C1)C2` (some centres unmarked) [Example 266], the IC50 is less than 1000 nM.
Still for that read-out and setting: for `O=C(NC12CC(c3nnc([C@H]4C[C@@H](OC(F)(F)F)C4)o3)(C1)C2)c1cn2ccc(C(F)(F)F)cc2n1` [Example 185] the value was less than 1000 nM; for `O=C(NC12CC(c3nnc([C@H]4C[C@@H](OC(F)(F)F)C4)o3)(C1)C2)c1cn2cc(F)c(Cl)cc2n1` [Example 194], less than 1000 nM.
With `O=C(COc1ccc(Cl)c(F)c1)NC12CC(N3C[C@@H](C4CC(OC(F)(F)F)C4)OC3=O)(C1)C2` (single isomer, unassigned) [Example 208], the half-maximal inhibitory concentration (IC50) was less than 1000 nM.
The same measure, in the same setting: for `O=C(COc1ccc(Cl)c(F)c1)NC12CC(c3cn([C@H]4C[C@@H](OC(F)(F)F)C4)nn3)(C1)C2` [Example 65, 2-(4-chloro-3-fluoro-phenoxy)-N-[3-[1-[3-cis-(trifluoromethoxy)cyclobutyl]triazol-4-yl]-1-bicyclo[1.1.1]pentanyl]acetamide] the value was less than 1000 nM.
For `O=C(NC12CC(c3nnc([C@H]4C[C@@H](OC(F)(F)F)C4)o3)(C1)C2)c1cc2cccn2cn1` [Example 101, N-[3-[5-[3-cis-(trifluoromethoxy)cyclobutyl]-1,3,4-oxadiazol-2-yl]-1-bicyclo[1.1.1]pentanyl]pyrrolo[1,2-c]pyrimidine-3-carboxamide], the half-maximal inhibitory concentration (IC50) is 1000 to 10000 nM.
The same measure, in the same setting: in the case of `O=C(CO[C@H]1C[C@@H](OC(F)(F)F)C1)NC12CC(N3CCN(c4ccc(Cl)cc4)C3=O)(C1)C2` [Example 264] it was less than 1000 nM; in that of `O=C(CO[C@H]1C[C@@H](OC(F)(F)F)C1)NC12CC(c3nnc(-c4ccc(C(F)(F)F)nc4)o3)(C1)C2` [Example 204], less than 1000 nM.
